A short description of the data set: gradient 5% acetonitrile 3 min, to 50% in 2 min, to 85% in 15 min, held 3 min, 100 µL/min. The settings on record: column: Zorbax Extend-C18 2.1 x 50 mm; eluents: water / acetonitrile, 0.1% formic acid. Put shortly:
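Pure standards were analyzed in mixtures of ~100 molecules using HPLC coupled to a quadrupole time-of-flight mass spectrometer, in both positive and negative ionization mode. Separation used a Zorbax Extend-C18 column (2.1 × 50 mm, 1.8 μm) at 100 μL/min, with water and acetonitrile each containing 0.1% formic acid. Dead and dwell volumes were 40 μL and 900 μL, and data were collected over 3 months. Retention time was read from computationally picked adduct peaks, each inspected manually.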
On to `COCCn1c(CC2CCN(C(=O)Nc3ccc(F)c(Cl)c3)C2)nc2cccnc21` (centres undefined), for which the RP-LC retention time is 660 s.

For the molecule `O=C(NCc1ccc(F)cc1)N1CCCC1c1nc(-c2cccc(F)c2)no1` (centres undefined), the RP-LC retention time worked out at 946 s.

`COCC(C)NC(=O)CN1c2ccc(F)cc2-c2ccccc2S1(=O)=O` (centres undefined): the RP-LC retention time was found to be 785 s.

For the molecule `COc1ccc(N2CC(C(=O)NCC(=O)N3CCCc4ccccc43)CC2=O)cc1` (centres undefined), the RP-LC retention time turned out to be 724 s.

Molecule `COc1ccc(S(=O)(=O)N2CCCC(C(=O)Nc3ccc4c(c3)OCCO4)C2)cc1Cl` (centres undefined) returned an RP-LC retention time of 938 s.

`Cc1cc2nn(CC(=O)Nc3ccc4c(c3)OCCO4)c(=O)n2c(Nc2ccccc2C)n1` had an RP-LC retention time of 908 s.

Molecule `COc1ccc(C(=O)NCc2ccc3c(c2)ncn3C(C)C)cc1F` displayed an RP-LC retention time of 632 s.

`Cc1ccc(CN2CCCC(c3nncn3Cc3ccccc3)C2)o1` (centres undefined) came in with an RP-LC retention time of 745 s.

`CCSc1nnc(NC(=O)C2CCN(S(=O)(=O)c3ccc4c(c3)sc(=O)n4C)CC2)s1` gave an RP-LC retention time of 862 s.

For the molecule `CN(C)CCCNc1cc(N2CCOCC2)c2noc3c2c1C(=O)c1ccccc1-3`, the RP-LC retention time was found to be 770 s.

In the case of `CCCCN1CCN(C(=O)c2cc(-c3ccncc3)cn2Cc2ccc(C)cc2)CC1`, the RP-LC retention time worked out at 582 s.

`Cc1[nH]c(=O)[nH]c(=O)c1CCC(=O)Nc1ccccc1C(N)=O` returned an RP-LC retention time of 547 s.

In turn, `CC1=C(c2ccccc2)S(=O)(=O)N=C1N1CCC(NC(=O)c2ccoc2)CC1` showed an RP-LC retention time of 733 s.

For `Cn1nc(C(=O)Nc2onc3c2CSC3)ccc1=O`, the RP-LC retention time was found to be 585 s.

As to `CCn1c(=O)c(C)nc2cc(-c3noc(-c4ccccc4C)n3)ccc21`, the RP-LC retention time worked out at 1190 s.

In the case of `C=CCNC(=O)c1cnn(-c2ccc(-c3nc(C(C)C)no3)cn2)c1C`, the RP-LC retention time came out at 903 s.

`O=S(=O)(Nc1cc(-c2ccoc2)no1)c1ccc2c(c1)CCC2` showed an RP-LC retention time of 921 s.

`COc1ccc(C(=O)N2CC(n3cc(COCC4CC4)nn3)C2)cn1` came in with an RP-LC retention time of 679 s.

`C#CC1(N2CCCCC2)CCCCC1` gave an RP-LC retention time of 638 s.

In the case of `O=C(Nc1nnc(-c2ccc(Br)o2)o1)c1ccc(F)cc1F`, the RP-LC retention time worked out at 740 s.

The molecule `O=C(CCNc1c(-c2cccc(F)c2)nc2cnccn12)NCc1cccc(Cl)c1` registered an RP-LC retention time of 772 s.

Turning to `Cc1cc(C)cc(Nc2c(-c3ccc(C(=O)O)cc3)nc3cnccn23)c1`, the RP-LC retention time came out at 779 s.

`CCCN1CCn2cc(C(=O)NC(C)c3ccccc3)nc2C1` (centres undefined) registered an RP-LC retention time of 603 s.

`Cc1cc(=O)n(CC(=O)Nc2ccc3c(c2)OCO3)c(N2CCOCC2)n1` returned an RP-LC retention time of 644 s.

In turn, `Cc1ccc(-c2noc(Cn3ccn(-c4cc(C)cc(C)c4)c(=O)c3=O)n2)cc1` showed an RP-LC retention time of 612 s.

`COc1ccc(CNC(=O)N(Cc2ccsc2)CC(F)(F)F)cc1OC` displayed an RP-LC retention time of 812 s.

Molecule `Cc1ccc(Cn2c(N3CCCC(C(=O)NCC(C)C)C3)nc3ccsc3c2=O)cc1` (centres undefined) gave an RP-LC retention time of 955 s.

`O=C(c1ccc(=O)[nH]n1)N1CCN(S(=O)(=O)C2CC2)CC1` came in with an RP-LC retention time of 552 s.

For `CNC(=O)c1nc(C(=O)NCCc2ccc(OC)c(OC)c2)cs1`, the RP-LC retention time is 623 s.

As to `CC(NC(=O)c1ccco1)c1nc2ccccc2n1CC(=O)N(C)c1ccccc1` (centres undefined), the RP-LC retention time turned out to be 694 s.

Molecule `COc1ccc(N2CC(c3nnc(NC(=O)c4ccc(Cl)cc4)o3)CC2=O)cc1` (centres undefined) displayed an RP-LC retention time of 835 s.

Turning to `Cc1cc(F)ccc1NC(=O)CN1C(=O)CCc2cc(S(=O)(=O)N3CCCCC3C)ccc21` (centres undefined), the RP-LC retention time was 920 s.

As to `Cc1ccn2cc(-c3ccc(NC(=O)c4cccc([N+](=O)[O-])c4)cc3)nc2n1`, the RP-LC retention time stood at 652 s.

In turn, `CCc1noc(NC(C)=O)c1-c1ccc(OC)c(S(=O)(=O)Nc2ccc(F)c(F)c2)c1` displayed an RP-LC retention time of 792 s.

As to `CCCn1c(CCc2ccccc2NS(=O)(=O)c2ccc3c(c2)OCCO3)nc2ccccc21`, the RP-LC retention time turned out to be 763 s.

In turn, `CCC1CCCCN1CCCNC(=O)C1CCCN(c2nccnc2Sc2ccccc2)C1` (centres undefined) had an RP-LC retention time of 714 s.

Take `CC1(C(=O)NCc2ccc(F)cc2)CN(S(C)(=O)=O)CC(=O)N1Cc1ccccc1Cl` (centres undefined): the RP-LC retention time stood at 848 s.

For `CCOC(=O)c1nc(N2CCN(C3CCCCC3)CC2)c2ccccc2n1`, the RP-LC retention time turned out to be 614 s.

With `CC(C)CNC(=O)CCn1c(=O)c2ccccc2n2c(=O)n(Cc3ccccc3F)nc12`, the RP-LC retention time was determined as 879 s.

Consider `CCN1C(=O)COc2ccc(-c3noc(-c4ccc(CS(=O)(=O)c5ccccc5)cc4)n3)cc21`, for which the RP-LC retention time is 1060 s.

With `COc1cc(-c2noc(-c3nc(-c4ccc(C)cc4)no3)n2)cc(OC)c1OC`, the RP-LC retention time stood at 1260 s.

In turn, `CN1C(=O)[C@H]2CN(Cc3ccc(Cl)c(F)c3)C[C@H]2C1=O` came in with an RP-LC retention time of 632 s.

As to `COc1ccc(NC(=O)[C@@H]2c3ccccc3C(=O)N3CCCC[C@@H]23)c(OC)c1`, the RP-LC retention time is 752 s.

The molecule `CCn1c(CCC(=O)NCc2ccc(F)cc2F)nc2c(C)cccc2c1=O` yielded an RP-LC retention time of 872 s.

On to `CCN1C(=O)c2cccnc2Sc2cc(NC(=O)c3ccc(C)c(C)c3)ccc21`, for which the RP-LC retention time stood at 918 s.

`O=C(Nc1cccc2c1N(C(=O)c1ccco1)CCC2)c1ccco1` had an RP-LC retention time of 784 s.

Consider `O=C(Cc1c[nH]c2ccccc12)N1CCC(c2noc(C3CC3)n2)C1` (centres undefined), for which the RP-LC retention time worked out at 744 s.

`O=S(=O)(c1ccc(F)cc1F)N1CC(COc2ccncc2)C2(CCOCC2)C1` (centres undefined) registered an RP-LC retention time of 613 s.

As for `Cn1c(=O)c2nc(SCCC(=O)Nc3ccc(Br)cc3F)n(C)c2n(C)c1=O`, the RP-LC retention time turned out to be 806 s.

`CCNC(=O)c1ccc(-n2nc(C)c(C)c2C)nc1`: the RP-LC retention time was 758 s.

Regarding `COc1ccc(CCS(=O)(=O)Nc2ccc(CC(=O)NCc3cccs3)cc2)cc1`, the RP-LC retention time was 782 s.

The molecule `COc1ccc(NS(=O)(=O)c2cc(-c3cc(C(F)(F)F)on3)sc2C)cc1Cl` returned an RP-LC retention time of 1140 s.

Molecule `CC(C)C(=O)Nc1ccc2nc(N3CCN(c4cccc(Cl)c4)CC3)cc(C(=O)O)c2c1` yielded an RP-LC retention time of 883 s.

Take `CCCS(=O)(=O)N1CCC(c2nc(CCOc3ccc(F)cc3)no2)C1` (centres undefined): the RP-LC retention time was 894 s.

For the molecule `CN(Cc1ccccc1)C(=O)Cn1c(=O)c2cnc(-c3ccccc3)nc2n(C)c1=O`, the RP-LC retention time is 1020 s.

For `Cc1nc(Nc2ccc(Cl)cn2)sc1C(=O)NCCN1CCCCC1`, the RP-LC retention time was determined as 637 s.

Molecule `O=C(Cc1cccc(Cl)c1)NC1CCN(c2cc(-c3ccc(F)cc3)[nH]n2)C1` (centres undefined) gave an RP-LC retention time of 741 s.

The molecule `CCN(CCN(C)C)c1ccc(C(=O)O)cc1NS(=O)(=O)c1ccccc1` had an RP-LC retention time of 610 s.

`COc1ccc(-c2cc(N3CCCC(C(=O)Nc4cccc5cccnc45)C3)ncn2)cc1` (centres undefined): the RP-LC retention time worked out at 629 s.

The record behind these values is the METLIN SMRT retention time set (Domingo-Almenara et al. 2019).
